Source: ChEMBL document CHEMBL4371100, “Antimicrobial Chrysophaentin Analogs Identified from Laboratory Cultures of the Marine Microalga Chrysophaeum taylorii” (2019)
Values after ≈ are worked out from the molar mass of the structure shown.

tested on: Staphylococcus aureus; assay: Antibacterial activity against Staphylococcus aureus ATCC 29213 by CLSI method; type: functional

Row | MIC [µg/mL] | Compound
1 | 10 (≈ 20 µM) | Oc1cc(C/C=C(/Cl)Cc2c(Br)c(O)cc(O)c2Br)c(O)cc1Cl
2 | 10 (≈ 15.5 µM) | Oc1cc(O)cc(C/C(Cl)=C\Cc2cc(O)c(-c3c(O)cc(C/C(Cl)=C\Cc4cc(O)c(Cl)cc4O)cc3O)cc2O)c1
3 | 40 (≈ 86.1 µM) | Oc1cc(C/C=C\Cc2c(Br)c(O)cc(O)c2Br)c(O)cc1Cl
4 | 40 (≈ 78.6 µM) | Oc1cc(C/C=C\Cc2c(Br)c(O)cc(O)c2Br)c(O)cc1Br
